This is an account of results in patent US20200239530A1, “COMPOUNDS AND METHODS OF MODULATING PROTEIN DEGRADATION” (Vividion Therapeutics, Inc., priority 2017, published 2020).

What all share (assay): Cysteine liganding, probe competition
Common to all, as to format: binding

The target of test [1] is T1, VRK3 Inactive serine/threonine-protein kinase VRK3 (Homo sapiens, UniProt Q8IV63).
T1 construct: Cells were resuspended in cold PBS on ice and sonicated with a probe sonicator to achieve lysis; endogenous in cells
T1 sequence (Q8IV63 1-474): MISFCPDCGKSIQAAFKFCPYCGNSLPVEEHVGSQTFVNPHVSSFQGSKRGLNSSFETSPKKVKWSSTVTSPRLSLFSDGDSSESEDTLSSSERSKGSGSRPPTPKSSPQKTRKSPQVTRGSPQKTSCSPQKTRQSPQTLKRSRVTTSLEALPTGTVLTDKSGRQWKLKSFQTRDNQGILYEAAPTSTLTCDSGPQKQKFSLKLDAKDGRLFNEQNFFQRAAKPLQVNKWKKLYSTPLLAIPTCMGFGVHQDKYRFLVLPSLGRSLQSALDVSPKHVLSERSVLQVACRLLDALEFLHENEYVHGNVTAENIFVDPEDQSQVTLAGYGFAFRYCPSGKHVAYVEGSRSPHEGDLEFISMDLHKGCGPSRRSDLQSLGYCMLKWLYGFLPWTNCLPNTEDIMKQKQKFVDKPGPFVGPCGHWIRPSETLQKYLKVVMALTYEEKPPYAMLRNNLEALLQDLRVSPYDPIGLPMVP
The essentials: (§1)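 Steps: sonicate cells in cold PBS; treat 5 mg/ml lysate with compound (25° C, 1 hr); add desthiobiotin iodoacetamide probe from a 10 mM stock (25° C, 1 hr); precipitate, reduce, alkylate, digest with trypsin; capture labelled peptides on streptavidin for analysis.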

Another test concerns the target T2, HIST1H3J Histone H3.1 (Homo sapiens, UniProt P68431).
T2 construct: Cells were resuspended in cold PBS on ice and sonicated with a probe sonicator to achieve lysis; endogenous in cells
The conditions noted are these: for Liganded: HIST1H3J Res# 111, uniprot P68431. The essentials:
as §1

Test [2] deals with T3, TRIM56 E3 ubiquitin-protein ligase TRIM56 (Homo sapiens, UniProt Q9BRZ2).
T3 construct: Cells were resuspended in cold PBS on ice and sonicated with a probe sonicator to achieve lysis; endogenous in cells
T3 sequence (Q9BRZ2 1-755): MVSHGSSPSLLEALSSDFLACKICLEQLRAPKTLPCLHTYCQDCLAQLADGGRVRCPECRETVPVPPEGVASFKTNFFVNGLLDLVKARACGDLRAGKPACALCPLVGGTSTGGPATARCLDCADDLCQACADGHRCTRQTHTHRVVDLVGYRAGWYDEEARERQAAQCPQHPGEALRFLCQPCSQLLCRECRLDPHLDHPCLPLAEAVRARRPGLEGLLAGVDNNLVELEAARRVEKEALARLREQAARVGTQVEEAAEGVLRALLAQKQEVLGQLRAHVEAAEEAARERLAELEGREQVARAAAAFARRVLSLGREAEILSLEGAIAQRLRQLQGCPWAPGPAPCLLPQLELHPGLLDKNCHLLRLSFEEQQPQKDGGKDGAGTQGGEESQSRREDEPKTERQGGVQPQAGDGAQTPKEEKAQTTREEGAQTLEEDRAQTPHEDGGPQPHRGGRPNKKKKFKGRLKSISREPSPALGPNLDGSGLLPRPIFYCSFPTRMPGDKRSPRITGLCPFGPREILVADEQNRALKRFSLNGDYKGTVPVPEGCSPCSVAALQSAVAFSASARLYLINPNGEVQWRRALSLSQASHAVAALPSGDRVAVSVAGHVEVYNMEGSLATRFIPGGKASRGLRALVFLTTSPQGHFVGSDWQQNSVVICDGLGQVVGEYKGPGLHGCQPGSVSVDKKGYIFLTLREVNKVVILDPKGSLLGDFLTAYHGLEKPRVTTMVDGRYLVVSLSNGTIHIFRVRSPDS
The essentials: as §1

As to `COc1ccc2c(c1)CCCN2C(=O)CCl` [KB02], the Liganded result is on record as “YES” in test [1] (VRK3 Res# 191, uniprot Q8IV63); “YES” at HIST1H3J Histone H3.1; “YES” in test [2] (TRIM56 Res# 338, uniprot Q9BRZ2).

As to `O=C(CCl)Nc1cc(C(F)(F)F)cc(C(F)(F)F)c1` [KBO3], the “100 Max” value in test [1] (uniprot Q8IV63) was −8.38; on HIST1H3J Histone H3.1 (uniprot P68431, in % (unit assumed)), 50.87. Further, the figures for the 100 ave (in test [1] (uniprot Q8IV63); on HIST1H3J Histone H3.1 (uniprot P68431)) were −10.03 and 22.28, respectively. Also, the 500 ave was determined as 14.41 in test [1] (uniprot Q8IV63), 79.39 on HIST1H3J Histone H3.1 (uniprot P68431) and 78.3 in test [2] (uniprot Q9BRZ2). Further, the “500 Max” value in test [1] (uniprot Q8IV63, in % (unit assumed)) is on record as 14.41; on HIST1H3J Histone H3.1 (uniprot P68431) it was 79.39; in test [2] (uniprot Q9BRZ2), 78.3. Moreover, the Liganded entry at HIST1H3J Histone H3.1 is on record as “YES”; in test [2] (TRIM56 Res# 36, uniprot Q9BRZ2), “YES”. Moreover, the “KB03_500 uM_percent_inhibition” value in test [2] (500 uM, UniProt Q9BRZ2) is given as 93%.
